Data taken from the NIST ThermoML archive (doi:10.1016/j.jct.2018.02.013).

What was measured:
[1] = molar heat capacity at constant pressure; conditions: 101.33 kPa, Liquid, Small sample (50 mg) DSC
[2] = 101.33 kPa, Liquid; for thermal conductivity: transient hot wire; for mass density: Vibrating tube method; for viscosity: Cone and plate viscometry; for electrical conductivity: Direct current cell with electrodes

CCCC(=O)[O-].CCCCCCCCCCCCCC[P+](CCCCCC)(CCCCCC)CCCCCC [trihexyl(tetradecyl)phosphonium butyrate]
Conditions	electrical conductivity [S/m]	mass density [kg/m3]	molar heat capacity at constant pressure [J/K/mol]	thermal conductivity [W/m/K]	viscosity [mPa·s]
[1], 293.15 K	–	–	1107.1	–	–
[1], 298.15 K	–	–	1112.8	–	–
[1], 303.15 K	–	–	1118.5	–	–
[1], 308.15 K	–	–	1123.6	–	–
[1], 313.15 K	–	–	1129.9	–	–
[1], 318.15 K	–	–	1136.2	–	–
[1], 323.15 K	–	–	1142.5	–	–
[1], 328.15 K	–	–	1148.2	–	–
[1], 333.15 K	–	–	1154.5	–	–
[1], 338.15 K	–	–	1161.3	–	–
[1], 343.15 K	–	–	1168.2	–	–
[1], 348.15 K	–	–	1175	–	–
[1], 353.15 K	–	–	1181.9	–	–
[1], 358.15 K	–	–	1188.7	–	–
[1], 363.15 K	–	–	1196.1	–	–
[2], 277.77 K	–	–	–	0.16	–
[2], 288.17 K	–	–	–	0.159	–
[2], 293.15 K	–	893	–	–	–
[2], 293.2 K	–	–	–	–	334.3
[2], 295.2 K	0.00389	–	–	–	–
[2], 298.15 K	–	890.4	–	–	–
[2], 298.2 K	–	–	–	–	251.1
[2], 298.48 K	–	–	–	0.1566	–
[2], 303.15 K	–	887.8	–	–	–
[2], 303.2 K	–	–	–	–	190.2
[2], 303.8 K	0.00631	–	–	–	–
[2], 306.44 K	–	–	–	0.1553	–
[2], 308.2 K	–	–	–	–	146.3
[2], 308.5 K	0.0083	–	–	–	–
[2], 313.15 K	–	881.2	–	–	–
[2], 313.2 K	–	–	–	–	115
[2], 313.9 K	0.0106	–	–	–	–
[2], 318.11 K	–	–	–	0.1543	–
[2], 318.2 K	–	–	–	–	91.46
[2], 318.5 K	0.0137	–	–	–	–
[2], 323.15 K	–	875.1	–	–	–
[2], 323.2 K	–	–	–	–	74.08
[2], 323.6 K	0.0172	–	–	–	–
[2], 327.69 K	–	–	–	0.1526	–
[2], 328.2 K	–	–	–	–	60.22
[2], 328.8 K	0.0214	–	–	–	–
[2], 333.15 K	–	869	–	–	–
[2], 333.2 K	–	–	–	–	49.78
[2], 333.8 K	0.0261	–	–	–	–
[2], 336.59 K	–	–	–	0.1509	–
[2], 338.2 K	–	–	–	–	41.11
[2], 338.7 K	0.0315	–	–	–	–
[2], 343.15 K	–	862.7	–	–	–
[2], 343.2 K	–	–	–	–	34.26
[2], 343.9 K	0.0377	–	–	–	–
[2], 348.16 K	–	–	–	0.1503	–
[2], 348.2 K	–	–	–	–	28.85
[2], 349.1 K	0.0446	–	–	–	–
[2], 353.15 K	–	856.7	–	–	–
[2], 353.2 K	–	–	–	–	24.66
[2], 355.83 K	–	–	–	0.1492	–
[2], 358.2 K	–	–	–	–	21.36
[2], 363.15 K	–	850.3	–	–	–
[2], 363.2 K	–	–	–	–	18.76
[2], 368.2 K	–	–	–	–	16.49

CC(=O)[O-].CCCCCCCCCCCCCC[P+](CCCCCC)(CCCCCC)CCCCCC [trihexyl(tetradecyl)phosphonium acetate]
Conditions	electrical conductivity [S/m]	mass density [kg/m3]	molar heat capacity at constant pressure [J/K/mol]	thermal conductivity [W/m/K]	viscosity [mPa·s]
[1], 293.15 K	–	–	1095.6	–	–
[1], 298.15 K	–	–	1097.7	–	–
[1], 303.15 K	–	–	1101.5	–	–
[1], 308.15 K	–	–	1105.9	–	–
[1], 313.15 K	–	–	1111.3	–	–
[1], 318.15 K	–	–	1116.7	–	–
[1], 323.15 K	–	–	1122.7	–	–
[1], 328.15 K	–	–	1128.1	–	–
[1], 333.15 K	–	–	1134.1	–	–
[1], 338.15 K	–	–	1140.6	–	–
[1], 343.15 K	–	–	1147.1	–	–
[1], 348.15 K	–	–	1154.2	–	–
[1], 353.15 K	–	–	1158.5	–	–
[1], 358.15 K	–	–	1166.7	–	–
[1], 363.15 K	–	–	1173.2	–	–
[2], 278.37 K	–	–	–	0.1629	–
[2], 288.1 K	–	–	–	0.1612	–
[2], 293.15 K	–	897.6	–	–	–
[2], 293.2 K	–	–	–	–	254
[2], 298.15 K	–	894.6	–	–	–
[2], 298.16 K	–	–	–	0.1602	–
[2], 298.2 K	–	–	–	–	196.2
[2], 299.6 K	0.00554	–	–	–	–
[2], 303.15 K	–	891.5	–	–	–
[2], 303.2 K	–	–	–	–	151.2
[2], 303.9 K	0.00767	–	–	–	–
[2], 307.92 K	–	–	–	0.1598	–
[2], 308.2 K	–	–	–	–	117.4
[2], 308.7 K	0.0101	–	–	–	–
[2], 313.15 K	–	885.2	–	–	–
[2], 313.2 K	–	–	–	–	92.23
[2], 313.7 K	0.0129	–	–	–	–
[2], 317.98 K	–	–	–	0.1582	–
[2], 318.2 K	–	–	–	–	73.75
[2], 318.8 K	0.0167	–	–	–	–
[2], 323.15 K	–	879	–	–	–
[2], 323.2 K	–	–	–	–	59.32
[2], 323.8 K	0.0209	–	–	–	–
[2], 328.08 K	–	–	–	0.1565	–
[2], 328.2 K	–	–	–	–	48.52
[2], 328.8 K	0.026	–	–	–	–
[2], 333.15 K	–	872.9	–	–	–
[2], 333.2 K	–	–	–	–	40.22
[2], 333.9 K	0.0317	–	–	–	–
[2], 338 K	–	–	–	0.1558	–
[2], 338.2 K	–	–	–	–	33.78
[2], 338.9 K	0.0383	–	–	–	–
[2], 343.15 K	–	866.7	–	–	–
[2], 343.2 K	–	–	–	–	28.55
[2], 343.9 K	0.0458	–	–	–	–
[2], 348.06 K	–	–	–	0.1551	–
[2], 348.2 K	–	–	–	–	24.46
[2], 349 K	0.0542	–	–	–	–
[2], 353.15 K	–	860.7	–	–	–
[2], 353.2 K	–	–	–	–	20.95
[2], 357.1 K	–	–	–	0.1541	–
[2], 358.2 K	–	–	–	–	18.13
[2], 363.15 K	–	854.7	–	–	–
[2], 363.2 K	–	–	–	–	15.71
[2], 368.2 K	–	–	–	–	13.72

CCCCCCCC(=O)[O-].CCCCCCCCCCCCCC[P+](CCCCCC)(CCCCCC)CCCCCC [trihexyl(tetradecyl)phosphonium octanoate]
Conditions	electrical conductivity [S/m]	mass density [kg/m3]	molar heat capacity at constant pressure [J/K/mol]	thermal conductivity [W/m/K]	viscosity [mPa·s]
[1], 293.15 K	–	–	1138.1	–	–
[1], 298.15 K	–	–	1150.7	–	–
[1], 303.15 K	–	–	1160.7	–	–
[1], 308.15 K	–	–	1170.1	–	–
[1], 313.15 K	–	–	1178.9	–	–
[1], 318.15 K	–	–	1185.8	–	–
[1], 323.15 K	–	–	1192.7	–	–
[1], 328.15 K	–	–	1199.6	–	–
[1], 333.15 K	–	–	1206.5	–	–
[1], 338.15 K	–	–	1213.4	–	–
[1], 343.15 K	–	–	1220.9	–	–
[1], 348.15 K	–	–	1228.4	–	–
[1], 353.15 K	–	–	1235.3	–	–
[1], 358.15 K	–	–	1242.2	–	–
[1], 363.15 K	–	–	1247.2	–	–
[2], 278.28 K	–	–	–	0.1611	–
[2], 288.24 K	–	–	–	0.1601	–
[2], 293.15 K	–	884.5	–	–	–
[2], 293.2 K	–	–	–	–	513.6
[2], 297.87 K	–	–	–	0.1581	–
[2], 298.15 K	–	881.4	–	–	–
[2], 298.2 K	–	–	–	–	400.2
[2], 300.6 K	0.00251	–	–	–	–
[2], 303.15 K	–	878.4	–	–	–
[2], 303.2 K	–	–	–	–	301.2
[2], 303.6 K	0.00345	–	–	–	–
[2], 307.71 K	–	–	–	0.1567	–
[2], 308 K	0.00428	–	–	–	–
[2], 308.2 K	–	–	–	–	230.8
[2], 313.15 K	–	872.1	–	–	–
[2], 313.2 K	–	–	–	–	179.3
[2], 313.4 K	0.0057	–	–	–	–
[2], 317.92 K	–	–	–	0.1561	–
[2], 318.2 K	–	–	–	–	141.2
[2], 319 K	0.0073	–	–	–	–
[2], 323.15 K	–	865.9	–	–	–
[2], 323.2 K	–	–	–	–	113
[2], 323.8 K	0.0091	–	–	–	–
[2], 328.17 K	–	–	–	0.1547	–
[2], 328.2 K	–	–	–	–	91.42
[2], 328.4 K	0.011	–	–	–	–
[2], 333.15 K	–	859.8	–	–	–
[2], 333.2 K	0.0137	–	–	–	75.22
[2], 337.66 K	–	–	–	0.1527	–
[2], 338.2 K	–	–	–	–	62.47
[2], 338.6 K	0.017	–	–	–	–
[2], 343 K	0.0198	–	–	–	–
[2], 343.15 K	–	853.7	–	–	–
[2], 343.2 K	–	–	–	–	52.65
[2], 347.76 K	–	–	–	0.1507	–
[2], 348.2 K	–	–	–	–	44.4
[2], 349.5 K	0.0247	–	–	–	–
[2], 353.15 K	–	847.6	–	–	–
[2], 353.2 K	–	–	–	–	37.98
[2], 358.08 K	–	–	–	0.1497	–
[2], 358.2 K	–	–	–	–	32.78
[2], 363.15 K	–	841.6	–	–	–
[2], 363.2 K	–	–	–	–	28.12
[2], 368.2 K	–	–	–	–	24.48

CCCCCCCCn1cc[n+](C)c1.O=S(=O)([N-]S(=O)(=O)C(F)(F)F)C(F)(F)F
[2]
Conditions	thermal conductivity [W/m/K]
280.03 K	0.1289
288.73 K	0.1279
297.76 K	0.1279
307.59 K	0.1279
318.58 K	0.1265
328.58 K	0.1259
337.48 K	0.1259
347.72 K	0.1259
357.76 K	0.1245
